Article PMC8591608, “DNDI-6148: A Novel Benzoxaborole Preclinical Candidate for the Treatment of Visceral Leishmaniasis” (Journal of Medicinal Chemistry, 2021)
Like-named read-outs stand apart in the source and are kept apart here.

Key:
[1] = system: L. infantum; assay: Intramacrophage L. infantum assay; format: cell-based; conditions: Leishmania infantum
Experimental: (§1) L. infantum (MHOM/MA/67/ITMAP263) and L. donovani (MHOM/ET/67/L82) were maintained in the golden (Syrian) hamster (Mesocricetus auratus). Ex vivo amastigotes were collected from the spleen of an infected donor hamster using two centrifugation purification steps: 230g for 10 min, keeping the supernatant layer, and 4100g for 30 min, keeping the pellet. The spleen parasite burden was assessed using the Stauber technique.[25] For in vitro assays, the inoculum was prepared in RPMI-1640 medium, supplemented with 200 mM L-glutamine, 16.5 mM NaHCO3, and 5% inactivated fetal calf serum. For the in vivo model, an infection inoculum containing 2 × 10^7 amastigotes/100 μL was prepared in phosphate-buffered saline (PBS).
(§2) The assay was performed in sterile 96-well microtiter plates, each well containing 10 μL of the compound dilution and 190 μL of the PMM/amastigote inoculum (3 × 10^4 cells/4.5 × 10^5 parasites per well). Parasite multiplication was compared to untreated infected controls (100% growth) and uninfected controls (0% growth). After five-day incubation, total parasite burdens were microscopically assessed after staining the cells with a 10% Giemsa solution. The results were expressed as a percentage reduction in parasite burden compared to untreated control wells. EC50 values were determined using an extended dose range (2-fold compound dilutions, 8-point concentration curve). Miltefosine was used as the reference drug.[26] For selected compounds, this assay format was also run using the L. donovani inoculum.

[2] = system: L. donovani; assay: Intramacrophage L. donovani assay; format: cell-based; conditions: for EC50: Leishmania donovani
Experimental: as §1, §2

[3] = PMM cytotoxicity assay; format: cell-based; conditions: mouse, primary peritoneal mouse macrophages (PMM); for CC50 at 3 days / CC50 at 72 h: geometric mean of at least two independent tests
Experimental: (§3) Primary peritoneal mouse macrophages (PMM) were collected two days after peritoneal stimulation with a 2% potato starch suspension. MRC5SV2 cells (diploid human embryonic lung fibroblasts) were cultured in minimal essential medium (MEM) containing Earle’s salts, supplemented with L-glutamine, NaHCO3, and 5% inactivated fetal calf serum. All cultures and assays were conducted at 37 °C under an atmosphere of 5% CO2.
(§4) Assays were performed in sterile 96-well microtiter plates, each well containing 10 μL of the compound dilution and 190 μL of MRC5SV2 or PMM inoculum (3 × 10^4 cells/mL). Cell growth was compared to untreated controls (100% growth) and assay-media controls (0% growth). After three-day incubation, cell viability was assessed fluorometrically by adding resazurin (50 μL/well of a stock solution in phosphate buffer (50 μg/mL)), incubating for 4 h and measuring fluorescence (λex 550 nm, λem 590 nm). The results were expressed as a percentage reduction in cell growth compared to untreated control wells. […] Tamoxifen was included as the reference drug.

[4] = MRC5 cytotoxicity assay; format: cell-based; conditions: human, MRC5SV2 cells (human embryonic lung fibroblasts), geometric mean of at least two independent tests
Experimental: as §3, §4

[5] = Liver microsome stability, human; format: in vitro ADME; conditions: human liver microsomes
Experimental: (§5) Tests were performed by WuXi AppTec, China. Test compounds (at 1 μM) or positive controls (testosterone, propafenone, and diclofenac) were incubated at 37 °C with liver microsomes from Balb/c mouse, golden (Syrian) hamster, Sprague-Dawley rat, Beagle dog, or human in the presence of a NADPH regenerating system and phosphate buffer (100 mM, pH 7.4) at 0.4 or 0.8 mg/mL microsomal protein. The samples were removed at time intervals from 0 to 60, 90, or 120 min and immediately mixed with cold methanol supplemented or not with acid (3% formic acid) and centrifuged prior to analysis by LC-MS/MS using tolbutamide or propranolol as internal standards.

[6] = Liver microsome stability, hamster; format: in vitro ADME; conditions: golden (Syrian), hamster liver microsomes
Experimental: as §5

[7] = system: L. infantum; assay: L. infantum hamster model of VL; format: in vivo
Experimental: as §1
Female golden hamsters for the in vivo model of visceral leishmaniasis were purchased from Janvier, France (body weight 80–100 g). This study using laboratory rodents was carried out in strict accordance with all mandatory guidelines (EU directives, including the Revised Directive 2010/63/EU on the protection of Animals used for Scientific Purposes that came into force on 01/01/2013, and the declaration of Helsinki in its latest version) and was approved by the ethical committee of the University of Antwerp, Belgium (UA-ECD 2011-74). Female golden hamsters for the pharmacokinetic study were purchased from Vital River, Beijing, China. This study was conducted following institutional review and in accordance with institutional and national guidelines at WuXi AppTec (the Institutional Animal Care and Use Committee (IACUC)). Balb/c mice for the in vivo model of visceral leishmaniasis (LSHTM) were purchased from Charles River, U.K., and related studies were conducted under license PPL 70/8427 from the U.K. Home Office.
Female golden hamsters were randomly allocated to experimental groups of six animals each, based on body weight. At the start of the experiment (Day 0), each animal was infected with L. infantum or L. donovani inoculum, delivered by intracardial injection. Six hamsters were assigned to the vehicle-treated, infected control group. Six hamsters were assigned per group (1 group/compound) for the evaluation of compound and miltefosine. […] At Day 35 (10 days after the final oral dose), all animals were euthanized and autopsies were conducted. The study evaluated the following parameters. • 1. Adverse effects: all animals were observed daily for the occurrence/presence of adverse effects. • 2. Body weight: all animals were weighed twice per week to monitor general health. • 3. Parasite burden: amastigote burdens in each target organ (liver, spleen, and bone marrow) were determined at Day 35. The organs of individual animals were weighed (except for bone marrow). Impression smears were stained with Giemsa for microscopic examination of the total amastigote burden, defined as the mean number of amastigotes per cell multiplied by the number of cells counted (minimum 500 nuclei); the results were expressed as a percentage reduction in amastigote burden compared to vehicle-treated, infected control animals.

[8] = Hamster oral pharmacokinetic study; format: in vivo, golden Syrian hamsters; conditions: female, golden Syrian, plasma
Experimental: […] The K2-EDTA anticoagulant was added to blood samples collected from 0.25 to 36 h, which were processed to plasma and stabilized with phosphoric acid (1% final) before analysis by LC-MS/MS. PK parameters were calculated using WinNonlin software (version 6.3).

[9] = Table 5, geometric mean of at least two independent tests, read-out: intramacrophage L. infantum amastigote EC50
[10] = Table 6, geometric mean of at least two independent tests
[11] = pH 7.4, Table 5, read-out: HLM Clint
[12] = pH 7.4, Table 5, read-out: HamLM Clint
[13] = single p.o. dose 50 mg/kg, read-out: AUC0–24 after single p.o. dose of 50 mg/kg
[14] = Table 4, geometric mean of at least two independent tests, read-out: intramacrophage L. infantum EC50
[15] = pH 7.4, Table 4, read-out: HLM Clint
[16] = pH 7.4, Table 4, read-out: HamLM Clint
[17] = Table 2, geometric mean of at least three independent assays

EC50 [1, 9] [µM]	EC50 [2, 10] [µM]	microsomal CLint at 2 h, 1 µM [6, 12] [µL/min/mg]	AUC(0-t) [8, 13] [ng·h/mL]	EC50 [1, 14] [µM]	microsomal CLint at 1 μM [5, 15] [µL/min/mg]	microsomal CLint at 2 h, 1 µM [6, 16] [µL/min/mg]	SMILES	reduction in parasite burden, bone marrow, 5 days ([7]; 25 mg/kg BID p.o. for 5 days) [%]	reduction in parasite burden, liver, 5 days ([7]; 25 mg/kg BID p.o. for 5 days) [%]	reduction in parasite burden, spleen, 5 days ([7]; 25 mg/kg BID p.o. for 5 days) [%]	reduction in parasite burden, bone marrow, 5 days ([7]; 50 mg/kg BID p.o. for 5 days) [%]	reduction in parasite burden, liver, 5 days ([7]; 50 mg/kg BID p.o. for 5 days) [%]	reduction in parasite burden, spleen, 5 days ([7]; 50 mg/kg BID p.o. for 5 days) [%]	CC50 at 3 days ([4]; Table 4) [µM]	CC50 at 72 h ([3]; Table 4) [µM]	CC50 at 3 days ([3]; Table 6) [µM]	other results
2	9.4	12	21000				O=C(Nc1ccc2c(c1)B(O)OC2)c1nnc(-c2ccccn2)o1 [Compound 31, N-(1-Hydroxy-1,3-dihydrobenzo[c][1,2]oxaborol-6-yl)-5-(pyridin-2-yl)-1,3,4-oxadiazole-2-carboxamide]	55.0	67.3	69.0	99.7	99.4	99.4				fold weaker against L. donovani compared with L. infantum potency ([2]; intramacrophage potency): about 5 fold; CC50 at 3 days ([3]; Table 5): > 64 µM; CC50 at 3 days ([4]; Table 5): > 64 µM; microsomal CLint at 2 h, 1 µM [5, 11]: 19 µL/min/mg
				2.1	< 11.9	1040	O=C(Nc1ccc2c(c1)B(O)OC2)c1cn(C(F)(F)F)nc1C(F)(F)F [Compound 4, N-(1-Hydroxy-1,3-dihydrobenzo[c][1,2]oxaborol-6-yl)-1,3-bis(trifluoromethyl)-1H-pyrazole-4-carboxamide]							> 64			CC50 at 3 days ([3]; Table 4): > 64 µM
	1.2			3.1	< 11.9	57	Cc1c(C(=O)Nc2ccc3c(c2)B(O)OC3)cnn1-c1ccccn1 [Compound 16, N-(1-Hydroxy-1,3-dihydrobenzo[c][1,2]oxaborol-6-yl)-5-methyl-1-(pyridin-2-yl)-1H-pyrazole-4-carboxamide]	72.2	87.8	87.7	95.1	99.6	98.5		59	> 64	CC50 at 72 h ([4]; Table 4): 61 µM; CC50 at 3 days ([4]; Table 6): 61.1 µM; AUC(0-t) ([8]; study run using a single 25 mg/kg p.o. dose, read-out: AUC0–24 after single p.o. dose): 7900 ng·h/mL
	1		21000	1.6	< 11.9	41	O=C(Nc1ccc2c(c1)B(O)OC2)c1cn(CC(F)(F)F)nc1C(F)(F)F [Compound 5, N-(1-Hydroxy-1,3-dihydrobenzo[c][1,2]oxaborol-6-yl)-1-(2,2,2-trifluoroethyl)-3-(trifluoromethyl)-1H-pyrazole-4-carboxamide]	77.0	89.7	90.0	98.0	99.7	99.2	> 64	50	53.8	
							CCCCCCCCCCCCCCCCOP(=O)([O-])OCC[N+](C)(C)C [miltefosine, reference compound]							> 64	33		EC50 ([1]; Table 2, geometric mean of at least three independent assays, read-out: intramacrophage L. infantum EC50): 10 µM; EC50 [2, 17]: 10 µM; EC50 at 3 days [3, 17]: 33 µM
1.7		82					Cc1oc(C(=O)Nc2ccc3c(c2)B(O)OC3)cc1-c1ccccn1 [Compound 29, N-(1-Hydroxy-1,3-dihydrobenzo[c][1,2]oxaborol-6-yl)-5-methyl-4-(pyridin-2-yl)furan-2-carboxamide]										CC50 at 72 h ([3]; Table 5): 29 µM; CC50 at 72 h ([4]; Table 5): 45 µM; microsomal CLint at 1 μM [5, 11]: < 11.9 µL/min/mg
